The record followed here is patent publication US9278107B2, “Antibacterial agent composition and antiviral agent composition comprising silicon-containing compound; antibacterializing method, cleaning/mouth rinsing method; method for fixing antibacterial agent and antiviral agent” (Hiroshima University, priority 2008, dated 2016).

For data set [1], the system named is Escherichia coli WP2uvrA and Salmonella typhimurium TA series strains (TA100, TA1535, TA98 and TA1537). To be noted: positive control.
Data set [2] concerns influenza virus A A/swan/Shimane/499/83(H5N3). The class given is cell-based, influenza virus A (avian). The note with it: reacted with virus at room temperature for 3 minutes, diluted with DMEM, MDCK(+) cells, TCID50; (20 ppm).
The subject of data set [3] is atypical (swine) influenza virus (type H1N1). Format: cell-based.

For `NC(=O)C(=Cc1ccc([N+](=O)[O-])o1)c1ccco1` [2-(2-furyl)-3-(5-nitro-2-furyl)acrylamide], the “number of reverse mutant colonies as compared with negative control” value (from here on “number … compared with negative control”) in data set [1] is recorded as “remarkable increase”.

Turning to `Cl.Nc1c2ccccc2nc2ccccc12` [9-Aminoacridine hydrochloride], the “number … compared with negative control” value in data set [1] is “remarkable increase”. On to `CCCCCCCCCCCCCCCCCC[N+](C)(C)CCC[Si](OCC)(OCC)OCC.[Cl-]` [EtAC, octadecyldimethyl(3-triethoxysilylpropyl)ammonium chloride], for which, in data set [2], the “EtAC dilution at which it is still effective” value amounted to 0.002%. Besides, in data set [3], the virus inactivating effect entry is given as “highly significant effects are found”. Turning to `[N-]=[N+]=[N-]` [sodium azide], the “number … compared with negative control” value in data set [1] was “remarkable increase”.
